From patent publication US10975077B2 (Novira Therapeutics, Inc., priority 2016, dated 2021)

Tested on: HBV (encapsidated HBV DNA, HepG2.2.15 cells)
Test: HBV replication inhibition assay, BDNA assay in HepG2.2.15 cells
Assay type: cell-based
Conditions: Hepatitis B virus, HepG2.2.15, Activity in BDNA-assay
Summary of the method: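 Encapsidated HBV DNA in DNase-treated, proteinase K-lysed supernatant was measured by branched DNA after 6 days' compound exposure, refreshed on day 3, of HepG2.2.15 cells in 0.5% DMSO. Signals normalized to DMSO-treated wells; EC50 from nonlinear regression of inhibition against log concentration.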

With `CSC1CN(C)C(=O)c2c3c(nn2C1)CCN(C(=O)Nc1ccc(F)c(Cl)c1)C3` (stereo not drawn) [Compound 025, N-(3-chloro-4-fluorophenyl)-10-methyl-8-(methylthio)-11-oxo-1,3,4,7,8,9,10,11-octahydro-2H-pyrido[4′,3′:3,4]pyrazolo[1,5-a][1,4]diazepine-2-carboxamide] as the compound, how does the EC50 read?
The EC50 was 0.001 to 0.1 µM.

`CN1CC(S(C)(=O)=O)Cn2nc3c(c2C1=O)CN(C(=O)Nc1ccc(F)c(Cl)c1)CC3` (stereo not drawn) [Compound 027, N-(3-chloro-4-fluoro-phenyl)-10-methyl-8-methylsulfonyl-11-oxo-1,3,4,7,8,9-hexahydropyrido[2,3]pyrazolo[2,4-b][1,4]diazepine-2-carboxamide] was tested. Which EC50 did it give?
The EC50 was 0.001 to 0.1 µM.

For `COC(=O)CC1CN(C)C(=O)c2c3c(nn2C1)CCN(C(=O)Nc1ccc(F)c(Cl)c1)C3` (stereo not drawn) [Compound 028, methyl 2-(2-((3-chloro-4-fluorophenyl)carbamoyl)-10-methyl-11-oxo-1,3,4,7,8,9,10,11-octahydro-2H-pyrido[4′,3′:3,4]pyrazolo[1,5-a][1,4]1diazepin-8-yl)acetate], which EC50 is on record?
The EC50 was 0.1 to 0.5 µM.

For `CN1CC(CCO)Cn2nc3c(c2C1=O)CN(C(=O)Nc1ccc(F)c(Cl)c1)CC3` (stereo not drawn) [Compound 029], which EC50 is on record?
The EC50 was 0.1 to 0.5 µM.

With `CCOC(=O)C1CN(C)C(=O)c2c3c(nn2C1)CCN(C(=O)Nc1ccc(F)c(Cl)c1)C3` (stereo not drawn) [Compound 030, ethyl 2-((3-chloro-4-fluorophenyl)carbamoyl)-10-methyl-11-oxo-2,3,4,7,8,9,10,11-octahydro-1H-pyrido[4′,3′:3,4]pyrazolo[1,5-a][1,4]diazepine-8-carboxylate] as the compound, how does the EC50 read?
The EC50 was over 1 µM.

`CNC(=O)C1CN(C)C(=O)c2c3c(nn2C1)CCN(C(=O)Nc1ccc(F)c(Cl)c1)C3` (stereo not drawn) [Compound 031, N2-(3-chloro-4-fluorophenyl)-N8,10-dimethyl-11-oxo-1,3,4,7,8,9,10,11-octahydro-2H-pyrido[4′,3′:3,4]pyrazolo[1,5-a][1,4]diazepine-2,8-dicarboxamide] was tested. Which EC50 did it give?
The EC50 was 0.001 to 0.1 µM.

Which EC50 does the source give for `CN(C)C(=O)C1CN(C)C(=O)c2c3c(nn2C1)CCN(C(=O)Nc1ccc(F)c(Cl)c1)C3` (stereo not drawn) [Compound 032, N2-(3-chloro-4-fluorophenyl)-N8,N8,10-trimethyl-11-oxo-1,3,4,7,8,9,10,11-octahydro-2H-pyrido[4′,3′:3,4]pyrazolo [1,5-a][1,4]diazepine-2,8-dicarboxamide] here?
The EC50 was 0.1 to 0.5 µM.

For `CN1CC(C(C)(C)O)Cn2nc3c(c2C1=O)CN(C(=O)Nc1ccc(F)c(Cl)c1)CC3` (stereo not drawn) [Compound 033, N-(3-chloro-4-fluorophenyl)-8-(2-hydroxypropan-2-yl)-10-methyl-11-oxo-3,4,8,9,10,11-hexahydro-1H-pyrido[4′,3′:3,4]pyrazolo[1,5-a][1,4]diazepine-2 (7H)-carboxamide], which EC50 is on record?
Its EC50 is 0.001 to 0.1 µM.

Which EC50 does the source give for `CC(O)C1CN(C)C(=O)c2c3c(nn2C1)CCN(C(=O)Nc1ccc(F)c(Cl)c1)C3` (stereo not drawn) [Compound 034, N-(3-chloro-4-fluorophenyl)-8-(1-hydroxyethyl)-10-methyl-11-oxo-1,3,4,7,8,9,10,11-octahydro-2H-pyrido[4′,3′:3,4]pyrazolo[1,5-a][1,4]diazepine-2-carboxamide] here?
The EC50 was 0.1 to 0.5 µM.

`CCC(O)C1CN(C)C(=O)c2c3c(nn2C1)CCN(C(=O)Nc1ccc(F)c(Cl)c1)C3` (stereo not drawn) [Compound 035] was tested. Which EC50 did it give?
Its EC50 is 0.001 to 0.1 µM.

How did the EC50 turn out when `CN1CC(C(O)C2CC2)Cn2nc3c(c2C1=O)CN(C(=O)Nc1ccc(F)c(Cl)c1)CC3` (stereo not drawn) [Compound 036] was run?
The EC50 was 0.001 to 0.1 µM.

Which EC50 does the source give for `CN1CC(C(F)F)Cn2nc3c(c2C1=O)CN(C(=O)Nc1ccc(F)c(Cl)c1)CC3` (stereo not drawn) [Compound 037, N-(3-chloro-4-fluorophenyl)-8-(difluoromethyl)-10-methyl-11-oxo-1,3,4,7,8,9,10,11-octahydro-2H-pyrido[4′,3′:3,4]pyrazolo[1,5-a][1,4]diazepine-2-carboxamide] here?
Its EC50 is 0.001 to 0.1 µM.

For `O=C(Nc1ccc(F)c(Cl)c1)N1CCc2nn3c(c2C1)C(=O)N(CC(F)F)CCC3` [Compound 038, N-(3-chloro-4-fluorophenyl)-10-(2,2-difluoroethyl)-11-oxo-1,3,4,7,8,9,10,11-octahydro-2H-pyrido[4′,3′:3,4]pyrazolo[1,5-a][1,4]diazepine-2-carboxamide], which EC50 is on record?
The EC50 was 0.001 to 0.1 µM.

For `CC1CCn2nc3c(c2C(=O)N1C)CN(C(=O)Nc1ccc(F)c(Cl)c1)CC3` (stereo not drawn) [Compound 039, N-(3-chloro-4-fluorophenyl)-9,10-dimethyl-11-oxo-1,3,4,7,8,9,10,11-octahydro-2H-pyrido[4′,3′:3,4]pyrazolo[1,5-a][1,4]diazepine-2-carboxamide], which EC50 is on record?
Its EC50 is 0.001 to 0.1 µM.

How did the EC50 turn out when `COC(=O)c1cn2nc3c(c2c(=O)n1C)CN(C(=O)Nc1ccc(F)c(Cl)c1)CC3` [Compound 040, methyl 2-((3-chloro-4-fluorophenyl)carbamoyl)-9-methyl-10-oxo-1,2,3,4,9,10-hexahydropyrido[4′,3′:3,4]pyrazolo[1,5-a]pyrazine-8-carboxylate] was run?
Its EC50 is 0.1 to 0.5 µM.

How did the EC50 turn out when `Cn1c(CO)cn2nc3c(c2c1=O)CN(C(=O)Nc1ccc(F)c(Cl)c1)CC3` [Compound 041, N-(3-chloro-4-fluorophenyl)-8-(hydroxymethyl)-9-methyl-10-oxo-3,4,9,10-tetrahydropyrido[4′,3′:3,4]pyrazolo[1,5-a]pyrazine-2 (1H)-carboxamide] was run?
The EC50 was 0.001 to 0.1 µM.

Which EC50 does the source give for `Cn1c(C(=O)O)cn2nc3c(c2c1=O)CN(C(=O)Nc1ccc(F)c(Cl)c1)CC3` [Compound 042, 2-((3-chloro-4-fluorophenyl)carbamoyl)-9-methyl-10-oxo-1,2,3,4,9,10-hexahydropyrido[4′,3′:3,4]pyrazolo[1,5-a]pyrazine-8-carboxylic acid] here?
The EC50 was over 1 µM.

Which EC50 does the source give for `COC(=O)C1Cn2nc3c(c2C(=O)N1C)CN(C(=O)Nc1ccc(F)c(Cl)c1)CC3` (stereo not drawn) [Compound 043, methyl 2-((3-chloro-4-fluorophenyl)carbamoyl)-9-methyl-10-oxo-1,2,3,4,7,8,9,10-octahydropyrido[4′,3′:3,4]pyrazolo[1,5-a]pyrazine-8-carboxylate] here?
Its EC50 is 0.1 to 0.5 µM.

Which EC50 does the source give for `CN1C(=O)c2c3c(nn2CC1CO)CCN(C(=O)Nc1ccc(F)c(Cl)c1)C3` (stereo not drawn) [Compound 044, N-(3-chloro-4-fluorophenyl)-8-(hydroxymethyl)-9-methyl-10-oxo-3,4,7,8,9,10-hexahydropyrido[4′,3′:3,4]pyrazolo[1,5-a]pyrazine-2 (1H)-carboxamide] here?
Its EC50 is 0.001 to 0.1 µM.

How did the EC50 turn out when `CN1CCn2nc3c(c2C1=O)CN(C(=O)Nc1ccc(F)c(Cl)c1)CC3` [Compound 045, N-(3-chloro-4-fluorophenyl)-9-methyl-10-oxo-3,4,7,8,9,10-hexahydropyrido[4′,3′:3,4]pyrazolo [1,5-a]pyrazine-2 (1H)-carboxamide] was run?
Its EC50 is 0.001 to 0.1 µM.

With `CN1CCCn2nc3c(c2C1)CN(C(=O)Nc1ccc(F)c(Cl)c1)CC3` [Compound 046, N-(3-chloro-4-fluorophenyl)-10-methyl-1,3,4,7,8,9,10,11-octahydro-2H-pyrido[4′,3′:3,4]pyrazolo[1,5-a][1,4]diazepine-2-carboxamide] as the compound, how does the EC50 read?
Its EC50 is over 1 µM.

With `CN1CC(C(O)CC2CC2)Cn2nc3c(c2C1=O)CN(C(=O)Nc1ccc(F)c(Cl)c1)CC3` (stereo not drawn) [Compound 047, N-(3-chloro-4-fluoro-phenyl)-8-(2-cyclopropyl-1-hydroxy-ethyl)-10-methyl-1-oxo-1,3,4,7,8,9-hexahydropyrido[2,3]pyrazolo[2,4-b][1,4]diazepine-2-carboxamide] as the compound, how does the EC50 read?
The EC50 was 0.001 to 0.1 µM.

Which EC50 does the source give for `C[C@@H]1Cc2nn3c(c2CN1C(=O)Nc1ccc(F)c(Cl)c1)C(=O)N(CC(C)(C)O)CCC3` [Compound 048] here?
The EC50 was 0.1 to 0.5 µM.

`C[C@@H]1Cc2nn3c(c2CN1C(=O)Nc1ccc(F)c(Cl)c1)C(=O)N(CCO)CCC3` [Compound 049, (3R)— N-(3-chloro-4-fluorophenyl)-10-(2-hydroxyethyl)-3-methyl-11-oxo-1,3,4,7,8,9,10,11-octahydro-2H-pyrido[4′,3′:3,4]pyrazolo[1,5-a][1,4]diazepine-2-carboxamide] was tested. Which EC50 did it give?
Its EC50 is 0.001 to 0.1 µM.

With `CNC1CN(C)C(=O)c2c3c(nn2C1)CCN(C(=O)Nc1ccc(F)c(Cl)c1)C3` (stereo not drawn) [Compound 050, N-(3-chloro-4-fluorophenyl)-10-methyl-8-(methylamino)-11-oxo-1,3,4,7,8,9,10,11-octahydro-2H-pyrido[4′,3′:3,4]pyrazolo[1,5-a][1,4]diazepine-2-carboxamide] as the compound, how does the EC50 read?
The EC50 was 0.1 to 0.5 µM.

For `O=C(Nc1ccc(F)c(Cl)c1)N1CCc2nn3c(c2C1)C(=O)N(CC(F)(F)F)CC(CO)C3` (stereo not drawn) [Compound 051, N-(3-chloro-4-fluorophenyl)-8-(hydroxymethyl)-11-oxo-10-(2,2,2-trifluoroethyl)-1,3,4,7,8,9,10,11-octahydro-2H-pyrido[4′,3′: 3,4]pyrazolo[1,5-a][1,4]diazepine-2-carboxamide], which EC50 is on record?
Its EC50 is 0.001 to 0.1 µM.

`CCOC(=O)C1(C)CN(C)C(=O)c2c3c(nn2C1)CCN(C(=O)Nc1ccc(F)c(Cl)c1)C3` (stereo not drawn) [Compound 052, ethyl 2-((3-chloro-4-fluorophenyl)carbamoyl)-8,10-dimethyl-11-oxo-1,3,4,7,8,9,10,11-octahydro-2H-pyrido[4′,3′:3,4]pyrazolo[1,5-a][1,4]diazepine-8-carboxylate] was tested. Which EC50 did it give?
Its EC50 is 0.1 to 0.5 µM.

With `CN1CC(C)(CO)Cn2nc3c(c2C1=O)CN(C(=O)Nc1ccc(F)c(Cl)c1)CC3` (stereo not drawn) [Compound 053, N-(3-chloro-4-fluorophenyl)-8-(hydroxymethyl)-8,10-dimethyl-11-oxo-1,3,4,7,8,9,10,11-octahydro-2H-pyrido[4′,3′:3,4]pyrazolo[1,5-a][1,4]diazepine-2-carboxamide] as the compound, how does the EC50 read?
Its EC50 is 0.001 to 0.1 µM.

Which EC50 does the source give for `CN1CC(N2CCC(F)(F)C2)Cn2nc3c(c2C1=O)CN(C(=O)Nc1ccc(F)c(Cl)c1)CC3` (stereo not drawn) [Compound 054, N-(3-chloro-4-fluorophenyl)-8-(3,3-difluoropyrrolidin-1-yl)-10-methyl-11-oxo-1,3,4,7,8,9,10,11-octahydro-2H-pyrido[4′,3′:3,4]pyrazolo[1,5-a][1,4]diazepine-2-carboxamide] here?
The EC50 was 0.1 to 0.5 µM.

With `CN1CC(N2CCCCC2)Cn2nc3c(c2C1=O)CN(C(=O)Nc1ccc(F)c(Cl)c1)CC3` (stereo not drawn) [Compound 055, N-(3-chloro-4-fluorophenyl)-10-methyl-11-oxo-8-(piperidin-1-yl)-1,3,4,7,8,9,10,11-octahydro-2H-pyrido[4′,3′:3,4]pyrazolo[1,5-a][1,4]diazepine-2-carboxamide] as the compound, how does the EC50 read?
The EC50 was 0.1 to 0.5 µM.
